Several values for one entry are separate records, joined by “and”; a condition that tells them apart may be missing. Identical values can stand only once. Like-named read-outs stand apart in the source and are kept apart here.
How the values were obtained:
[1] = tested on: MKN-45 human gastric tumor xenograft; type: in vivo; conditions: for BW loss: on day 21
Procedure: 5-FU was administered daily at 10 mg/kg intravenously, five days a week for two weeks. TS-1 was administered daily at 10 mg/kg orally, five days a week for two weeks. Capecitabine was administered daily at 360 mg/kg orally, five days a week for two weeks. CDDP was administered weekly at 5 mg/kg intravenously for two weeks.

[2] = tested on: MIA PaCa-2 pancreatic tumor cells; assay: 72 h MTT proliferation assay, equipotent fixed-ratio combination, isobologram analysis (Calcusyn)
Procedure: (§2) Cell culture and reagents: NCI-H441, PC-3, MIA PaCa-2, HeLa, HT-29 and A549 cancer cell lines (American Type Culture Collection) were cultured in Dulbecco's modified Eagle's medium containing 10% fetal bovine serum, 100 units/mL penicillin, 100 g/mL streptomycin, and 2 mM L-glutamine.
(§3) Duplicate independent experiments were performed for each cell line/drug combination. Data were then analyzed by Calcusyn™ (Biosoft, Cambridge, UK) data analysis software.
(§4) Cell survival analysis. In some experiments, cell survival was determined by the 3-(4,5-dimethylthiazol-2-yl)-2,5-diphenyl tetrazolium bromide (MTT) assay. Briefly, cells were plated in a 96-well plate at 5-10,000 cells per well, cultured for 24 hours in complete growth medium, and then treated with various drugs and drug combinations for 72 hours. […] Data were normalized to untreated controls and analyzed with Microsoft Excel.
(§5) Median effect plots and isobolograms were performed for each experiment.

[3] = tested on: NCI-H441 NSCLC human tumor xenograft; assay: NCI-H441 human lung tumor xenograft model; type: in vivo; conditions: for BW loss: on day 4
Procedure: Erlotinib was administered daily at 100 mg/kg or 50 mg/kg orally, five days a week for four weeks.
Gefitinib was administered daily at 50 mg/kg orally, five days a week for four weeks.

[4] = tested on: subcutaneous NCI-H522 NSCLC tumors; conditions: for tolerability: mouse, in vivo, po
Procedure: All regimens were orally administered once daily for 21 days. Tumor sizes were evaluated periodically during treatment at the indicated days post-inoculation.

[5] = tested on: MKN-45 human gastric tumor xenograft; assay: MKN-45 human gastric tumor xenograft model (Example 88)
Procedure: (§6) Specifically, gastric cancer cell lines MKN-45 and Hsc-39 were tested.

22RV1 = assay: 72 hr MTS assay, combination index by CalcuSyn; type: cell-based, human; conditions: 22RV1 (Prostate), chemotherapeutic agent combined with Agent A
DU-145 = assay: 72 hr MTS assay, combination index by CalcuSyn; type: cell-based, human; conditions: DU-145 (Prostate), chemotherapeutic agent combined with Agent A
[6] = tested on: Hsc-39 human gastric tumor xenograft; assay: Hsc-39 human gastric tumor xenograft model; type: in vivo
Procedure: as §6

PC-3 cells = assay: 72 h MTT proliferation assay, equipotent fixed-ratio combination, isobologram analysis (Calcusyn)
Procedure: as §2, §3, §4, §5

AsPC-1 = assay: 72 hr MTS cytotoxicity assay, combination with gemcitabine; type: cell-based, human; conditions: AsPC-1 (Pancreatic), chemotherapeutic agent combined with Agent A
Procedure: (§7) MIA PaCa-2 (also referred to as PACA2), PANC-1, CFPAC-1, and Hs766T human pancreatic cell lines were maintained in DMEM supplemented with 10% fetal bovine serum (FBS), penicillin, streptomycin, and fungizone. AsPC-1 cells were maintained in RPMI supplemented with 10% FBS, penicillin, streptomycin, and fungizone. HPAF-II cells were maintained in MEM supplemented with 10% FBS, penicillin, streptomycin, and fungizone. […] MTS reagent (Promega, Madison, Wis.) was added to each well and plates were incubated for 4 hr at 37° C.

PANC-1 = assay: as above; type: cell-based, human; conditions: PANC-1 (Pancreatic), chemotherapeutic agent combined with Agent A
Procedure: as §7

HPAF-II = assay: as above; type: cell-based, human; conditions: HPAF-II (Pancreatic), chemotherapeutic agent combined with Agent A
Procedure: as §7

[7] = tested on: NCI-H441 non-small cell lung cancer cells; assay: 72 h MTT proliferation assay, equipotent fixed-ratio combination, isobologram analysis (Calcusyn); type: cell-based, human
Source text: (§1) Erlotinib is an inhibitor of the epidermal growth factor receptor and is indicated for the treatment of patients with locally advanced or metastatic non-small cell lung cancer after failure of at least one prior chemotherapy regimen, and is indicated for the first-line treatment of patients with locally advanced, unresectable or metastatic pancreatic cancer.

HT29 colon cancer cells = assay: as above; type: cell-based; conditions: Homo sapiens
Source text: as §1
Gefitinib is an inhibitor of the EGF receptor.

c-Met [8] = molecular target: T1, c-Met (Homo sapiens, UniProt P08581); assay: c-Met cell-based assays; conditions: a number of cell-based assays
T1 sequence (P08581 25-1390): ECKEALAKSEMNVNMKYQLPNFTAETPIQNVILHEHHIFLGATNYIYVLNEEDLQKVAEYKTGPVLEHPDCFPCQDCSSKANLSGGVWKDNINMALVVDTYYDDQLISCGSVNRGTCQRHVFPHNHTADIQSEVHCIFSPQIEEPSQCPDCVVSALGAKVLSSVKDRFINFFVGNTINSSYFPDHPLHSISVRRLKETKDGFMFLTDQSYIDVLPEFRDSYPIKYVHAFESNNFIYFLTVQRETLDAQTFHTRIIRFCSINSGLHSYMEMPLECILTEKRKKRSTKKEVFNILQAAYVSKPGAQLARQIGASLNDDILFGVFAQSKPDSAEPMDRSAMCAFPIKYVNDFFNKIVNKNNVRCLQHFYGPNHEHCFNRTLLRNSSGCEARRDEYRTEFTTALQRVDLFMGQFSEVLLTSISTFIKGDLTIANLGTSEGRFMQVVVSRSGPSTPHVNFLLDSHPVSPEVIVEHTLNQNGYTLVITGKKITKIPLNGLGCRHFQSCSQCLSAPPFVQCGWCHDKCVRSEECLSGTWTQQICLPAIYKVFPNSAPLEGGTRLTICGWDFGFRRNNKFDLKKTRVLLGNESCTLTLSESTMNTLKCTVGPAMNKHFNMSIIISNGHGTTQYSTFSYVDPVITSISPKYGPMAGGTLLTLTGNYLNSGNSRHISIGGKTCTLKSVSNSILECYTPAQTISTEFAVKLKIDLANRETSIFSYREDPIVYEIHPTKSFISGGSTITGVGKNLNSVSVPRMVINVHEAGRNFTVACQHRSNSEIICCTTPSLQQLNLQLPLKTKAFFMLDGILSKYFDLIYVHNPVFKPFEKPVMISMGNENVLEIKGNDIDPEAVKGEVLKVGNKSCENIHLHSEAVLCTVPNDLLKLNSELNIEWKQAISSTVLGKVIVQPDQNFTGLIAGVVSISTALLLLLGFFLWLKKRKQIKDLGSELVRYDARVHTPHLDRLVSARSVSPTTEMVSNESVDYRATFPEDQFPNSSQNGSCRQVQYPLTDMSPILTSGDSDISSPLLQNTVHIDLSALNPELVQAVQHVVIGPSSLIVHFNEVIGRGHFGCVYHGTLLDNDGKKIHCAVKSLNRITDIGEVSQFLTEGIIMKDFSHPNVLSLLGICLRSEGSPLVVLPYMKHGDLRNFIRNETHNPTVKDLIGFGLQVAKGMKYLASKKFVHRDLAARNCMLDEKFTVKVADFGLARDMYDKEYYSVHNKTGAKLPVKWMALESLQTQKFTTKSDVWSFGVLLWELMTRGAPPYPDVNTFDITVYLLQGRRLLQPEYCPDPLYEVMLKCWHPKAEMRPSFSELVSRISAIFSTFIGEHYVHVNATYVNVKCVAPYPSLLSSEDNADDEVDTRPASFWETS

c-Met [9] = molecular target: T1, c-Met; assay: c-Met biochemical assays
[10] = Gefitinib 50 mg/kg p.o. qd × 5 × 4
[11] = Capecitabine 360 mg/kg p.o. qd × 5 × 2
[12] = Homo sapiens, MIA PaCa-2, read-out: IC50, predicted, MIA PaCa-2 cells, predicted value used to set the ratio
[13] = Homo sapiens, PC-3, 72 h, PC-3, 72 h, single agents and fixed-ratio combination
[14] = Homo sapiens, PC-3, read-out: IC50, predicted, PC-3 cells, predicted value used to set the ratio
[15] = Erlotinib 50 mg/kg p.o. qd × 5 × 4
[16] = Erlotinib 100 mg/kg p.o. qd × 5 × 4
[17] = Homo sapiens, NCI-H441, NCI-H441 NSCLC cells, predicted value used to set the ratio, read-out: IC50, predicted
[18] = Agent A 300 mg/kg p.o. qd × 5 × 2
[19] = Agent A 300 mg/kg p.o. qd × 5 × 2, on day 10

O=C1NC(=O)C(c2cn3c4c(cccc24)CCC3)=C1c1ccc(OCc2ccccc2)cc1 [Example 66, 3-[4-(benzyloxy)phenyl]-4-(5,6-dihydro-4H-pyrrolo[3,2,1-ij]quinolin-1-yl)-1H-pyrrole-2,5-dione]
melting point: 262 to 265 °C

N.N.[Cl][Pt][Cl] [Cisplatin, cisplatin]
Mortality ([1]; Cisplatin 5 mg/kg i.v. Weekly × 2): 0/5
T/C Min ([1]; Cisplatin 5 mg/kg i.v. Weekly × 2, on day 10): 0.55 (10)
IC50 ([2]; MIA PaCa-2, 72 h, single agents and fixed-ratio combination): 3370 nM and 3790 nM

O=c1[nH]cc(F)c(=O)[nH]1 [Example 5-FU, fluorouracil]
Mortality ([1]; 5-FU 10 mg/kg i.v. qd × 5 × 2): 0/5
T/C Min ([1]; 5-FU 10 mg/kg i.v. qd × 5 × 2, on day 14): 0.63 (14)
BW loss ([1]; 5-FU 10 mg/kg i.v. qd × 5 × 2): −3.4 (21) g

O=C1NC(=O)[C@@H](c2cn3c4c(cccc24)CCC3)[C@@H]1c1ccc(O)cc1 (racemic) [Example 72, (±)-Trans-3-(5,6-dihydro-4H-pyrrolo[3,2,1-ij]quinolin-1-yl)-4-(4-hydroxyphenyl)pyrrolidine-2,5-dione]
melting point: 105 to 107 °C

O=C1NC(=O)[C@@H](c2cn3c4c(cccc24)CCC3)[C@@H]1c1ccc(F)cc1 (racemic) [Example 70, (±)-Trans-3-(5,6-dihydro-4H-pyrrolo[3,2,1-ij]quinolin-1-yl)-4-(4-fluorophenyl)pyrrolidine-2,5-dione]
melting point: 208 to 210 °C

COc1cc2ncnc(Nc3ccc(F)c(Cl)c3)c2cc1OCCCN1CCOCC1 [Gefitinib, gefitinib]
Mortality [3, 10]: 0/5
BW loss [3, 10]: −0.5 (4) g
T/C Min ([3]; Gefitinib 50 mg/kg p.o. qd × 5 × 4, on day 21): 0.60 (21)

CCCCCOC(=O)Nc1nc(=O)n([C@@H]2O[C@H](C)[C@@H](O)[C@H]2O)cc1F [Capecitabine, capecitabine]
Mortality [1, 11]: 0/5
T/C Min ([1]; Capecitabine 360 mg/kg p.o. qd × 5 × 2, on day 14): 0.42 (14)
BW loss [1, 11]: −1.4 (21) g

CNC(=O)c1cc(Oc2ccc(NC(=O)Nc3ccc(Cl)c(C(F)(F)F)c3)cc2)ccn1 [sorafenib]
tolerability [4]: well-tolerated

CC(=O)O[C@@]12CO[C@@H]1C[C@H](O)[C@@]1(C)C(=O)[C@H](O)C3=C(C)[C@@H](OC(=O)[C@H](O)[C@@H](NC(=O)OC(C)(C)C)c4ccccc4)C[C@@](O)([C@@H](OC(=O)c4ccccc4)[C@H]21)C3(C)C [Docetaxel, docetaxel]
Mortality ([5]; Docetaxel 7.5 mg/kg i.v. single): 0/5
T/C Min ([5]; Docetaxel 7.5 mg/kg i.v. single, on day 15): 0.63 (15)
Mortality ([5]; Docetaxel 15 mg/kg i.v. single): 0/5
T/C Min ([5]; Docetaxel 15 mg/kg i.v. single, on day 7): 0.68 (7)
IC50 ([2]; Homo sapiens, MIA PaCa-2, 72 h, MIA PaCa-2, 72 h, single agents and fixed-ratio combination): 5.1 nM
IC50 [2, 12]: ~5 nM
Combination Conclusion (22RV1): Synergism
Combination Index Values at ED50 (22RV1): 0.7
Combination Conclusion (DU-145): Synergism
Combination Index Values at ED50 (DU-145): 0.7
T/C Min ([6]; Docetaxel 7.5 mg/kg i.v. single, on day 17): 0.46 (17)
T/C Min ([6]; Docetaxel 15 mg/kg i.v. single, on day 17): 0.40 (17)
IC50 (PC-3 cells; [13]): 6 nM
IC50 (PC-3 cells; [14]): ~5 nM
IC50 (PC-3 cells; PC-3, 72 h, single agents and fixed-ratio combination, listed as Taxotere): 3.5 nM

Nc1ccn([C@@H]2O[C@H](CO)[C@@H](O)C2(F)F)c(=O)n1 [Gemcitabine, gemcitabine]
Combination Conclusion (AsPC-1): Synergism
Combination Index Values at ED50 (AsPC-1): 0.6
Combination Conclusion (PANC-1): Synergism
Combination Index Values at ED50 (PANC-1): 0.7
Combination Conclusion (HPAF-II): Synergism
Combination Index Values at ED50 (HPAF-II): 0.2

C#Cc1cccc(Nc2ncnc3cc(OCCOC)c(OCCOC)cc23)c1 [Erlotinib, erlotinib]
Mortality [3, 15]: 0/5
BW loss [3, 15]: −0.6 (4) g
T/C Min ([3]; Erlotinib 50 mg/kg p.o. qd × 5 × 4, on day 17): 0.59 (17)
Mortality [3, 16]: 0/5
BW loss [3, 16]: −1.0 (4) g
T/C Min ([3]; Erlotinib 100 mg/kg p.o. qd × 5 × 4, on day 17): 0.50 (17)
IC50 ([7]; Homo sapiens, NCI-H441, 72 h, NCI-H441, 72 h, single agents and fixed-ratio combination, read-out: IC50): 3560 nM
IC50 [7, 17]: ~1000 nM
IC50 ([7]; NCI-H441, 72 h, single agents and fixed-ratio combination, read-out: IC50): 3160 nM
IC50 (HT29 colon cancer cells; HT-29, HT29, 72 h, single agents and fixed-ratio combination, read-out: IC50): 56300 nM

COc1cccc([C@@H]2C(=O)NC(=O)[C@H]2c2cn3c4c(cccc24)CCC3)c1 (racemic) [Example 68, (±)-Trans-3-(5,6-dihydro-4H-pyrrolo[3,2,1-ij]quinolin-1-yl)-4-(3-methoxyphenyl)pyrrolidine-2,5-dione]
melting point: 87 to 91 °C

O=C1NC(=O)[C@@H](c2cn3c4c(cccc24)CCC3)[C@@H]1c1cccc(O)c1 (racemic) [Example 69, (±)-Trans-3-(5,6-dihydro-4H-pyrrolo[3,2,1-ij]quinolin-1-yl)-4-(3-hydroxyphenyl)pyrrolidine-2,5-dione]
melting point: 108 to 110 °C

O=C1NC(=O)[C@@H](c2cn3c4c(cccc24)CCC3)[C@@H]1c1c[nH]c2ccccc12 (single isomer, unassigned) [Agent A]
c-Met activity (c-Met [8]): inhibit c-Met activity
Mortality [5, 18]: 0/5
BW loss [5, 19]: −1.3 (10) g
T/C Min ([5]; Agent A 300 mg/kg p.o. qd × 5 × 2, on day 15): 0.61 (15)
Mortality [1, 18]: 0/5
T/C Min ([1]; Agent A 300 mg/kg p.o. qd × 5 × 2, on day 4): 0.50 (4)
BW loss [1, 18]: −1.7 (21) g
IC50 [2, 12]: 150 nM
c-Met activity (c-Met [9]): inhibit c-Met activity
T/C Min [6, 19]: 0.63 (10)
Mortality ([3]; Agent A 300 mg/kg p.o. qd × 5 × 4): 0/5
T/C Min ([3]; Agent A 300 mg/kg p.o. qd × 5 × 4, on day 17): 0.52 (17)
IC50 [7, 17]: 300 nM
IC50 (PC-3 cells; [13]): 875 nM
IC50 (PC-3 cells; [14]): 1000 nM
IC50 (PC-3 cells; PC-3, 72 h, single agents and fixed-ratio combination): 553 nM
tolerability [4]: well-tolerated
effects on body weight gain ([4]; oral gavage once daily for 21 days, all cohorts): no adverse effects on body weight gain
IC50 (HT29 colon cancer cells; HT-29, 72 h, HT29, 72 h, single agents and fixed-ratio combination, read-out: IC50): 179 nM
IC50 (HT29 colon cancer cells; HT-29, HT29 cells, predicted value used to set the ratio, read-out: IC50, predicted): 150 nM

O=C1NC(=O)C(c2cn3c4c(cccc24)CCC3)=C1c1ccc(F)cc1 [Example 67, 3-(5,6-dihydro-4H-pyrrolo[3,2,1-ij]quinolin-1-yl)-4-(4-fluorophenyl)-1H-pyrrole-2,5-dione]
melting point: 234 to 235 °C

— patent publication US9642847B2, “Combinational compositions and methods for treatment of cancer” (ArQule, Inc., priority 2009, dated 2017)
